Species: Rattus norvegicus
Experiment: DrugMatrix - Regimen: Daily Repeat
Format: toxicity, organism-based, Sprague-Dawley
Parameters: regimen Daily Repeat, gender Male, age 6-8 weeks
Details: in vivo, po, route oral GAVAGE, vehicle 100 % WATER; for ABSOLUTE BASOPHIL / ABSOLUTE EOSINOPHIL / ABSOLUTE LYMPHOCYTE / ABSOLUTE MONOCYTE / ABSOLUTE SEGMENTED NEUTROPHIL / BASOPHIL / EOSINOPHIL / ERYTHROCYTE COUNT / HEMATOCRIT / HEMOGLOBIN / LEUKOCYTE COUNT / LYMPHOCYTE / MEAN CORPUSCULAR HEMOGLOBIN / MEAN CORPUSCULAR HEMOGLOBIN CONCENTRATION / MEAN CORPUSCULAR VOLUME / MONOCYTE / NEUTROPHIL / NUCLEATED RED BLOOD CELLS / PLATELET COUNT: tissue Blood; for ALANINE AMINOTRANSFERASE / ALKALINE PHOSPHATASE / ASPARTATE AMINOTRANSFERASE / BLOOD UREA NITROGEN / CARBON DIOXIDE / CHLORIDE / CHOLESTEROL / CREATINE PHOSPHOKINASE / CREATININE / GLUCOSE / LACTATE DEHYDROGENASE / LIPASE / PHOSPHORUS / POTASSIUM / SODIUM / TOTAL BILIRUBIN / TOTAL PROTEIN / URIC ACID: tissue Plasma
[1] = 22 mg/kg, 120 h, dose level Low, time 5 day
[2] = 320 mg/kg, 72 h, dose level High, time 3 day
[3] = 320 mg/kg, 120 h, dose level High, time 5 day

COc1ccc(C(CN(C)C)C2(O)CCCCC2)cc1 (stereo unspecified) [VENLAFAXINE]
ABSOLUTE BASOPHIL [1]: 0 CELLS/uL
ABSOLUTE EOSINOPHIL [1]: 0 CELLS/uL
ABSOLUTE LYMPHOCYTE [1]: 7105.33 CELLS/uL
ABSOLUTE MONOCYTE [1]: 102.33 CELLS/uL
ABSOLUTE SEGMENTED NEUTROPHIL [1]: 692.33 CELLS/uL
BASOPHIL [1]: 0%
EOSINOPHIL [1]: 0%
ERYTHROCYTE COUNT [1]: 5.16 x10E6/uL
HEMATOCRIT [1]: 32.4%
HEMOGLOBIN [1]: 12.8 G/DL
LEUKOCYTE COUNT [1]: 7.9 x10E3/uL
LYMPHOCYTE [1]: 90%
MEAN CORPUSCULAR HEMOGLOBIN [1]: 24.83 pg
MEAN CORPUSCULAR HEMOGLOBIN CONCENTRATION [1]: 39.5 G/DL
MEAN CORPUSCULAR VOLUME [1]: 62.73 fL
MONOCYTE [1]: 1.33%
NEUTROPHIL [1]: 8.67%
NUCLEATED RED BLOOD CELLS [1]: 0 /100WBC
PLATELET COUNT [1]: 1242 x10E3/uL
ALANINE AMINOTRANSFERASE [1]: 58.67 u/L
ALKALINE PHOSPHATASE [1]: 353 u/L
ASPARTATE AMINOTRANSFERASE [1]: 97.67 u/L
BLOOD UREA NITROGEN [1]: 15 mg/dL
CARBON DIOXIDE [1]: 29 mmol/L
CHLORIDE [1]: 106 MEQ/L
CHOLESTEROL [1]: 81 mg/dL
CREATINE PHOSPHOKINASE [1]: 155 u/L
CREATININE [1]: 0.18 mg/dL
GLUCOSE [1]: 132.33 mg/dL
LACTATE DEHYDROGENASE [1]: 132 u/L
LIPASE [1]: 9.67 u/L
PHOSPHORUS [1]: 11.27 mg/dL
POTASSIUM [1]: 6.7 MEQ/L
SODIUM [1]: 152.17 MEQ/L
TOTAL BILIRUBIN [1]: 0.17 mg/dL
TOTAL PROTEIN [1]: 6.63 G/DL
URIC ACID [1]: 1.17 mg/dL
ABSOLUTE BASOPHIL [2]: 0 CELLS/uL
ABSOLUTE EOSINOPHIL [2]: 0 CELLS/uL
ABSOLUTE LYMPHOCYTE [2]: 16169.33 CELLS/uL
ABSOLUTE MONOCYTE [2]: 308 CELLS/uL
ABSOLUTE SEGMENTED NEUTROPHIL [2]: 1489.33 CELLS/uL
BASOPHIL [2]: 0%
EOSINOPHIL [2]: 0%
ERYTHROCYTE COUNT [2]: 5.59 x10E6/uL
HEMATOCRIT [2]: 35.1%
HEMOGLOBIN [2]: 13.63 G/DL
LEUKOCYTE COUNT [2]: 17.97 x10E3/uL
LYMPHOCYTE [2]: 89.67%
MEAN CORPUSCULAR HEMOGLOBIN [2]: 24.4 pg
MEAN CORPUSCULAR HEMOGLOBIN CONCENTRATION [2]: 38.83 G/DL
MEAN CORPUSCULAR VOLUME [2]: 62.7 fL
MONOCYTE [2]: 1.67%
NEUTROPHIL [2]: 8.67%
NUCLEATED RED BLOOD CELLS [2]: 0 /100WBC
PLATELET COUNT [2]: 1276.67 x10E3/uL
ALANINE AMINOTRANSFERASE [2]: 53.67 u/L
ALKALINE PHOSPHATASE [2]: 355.33 u/L
ASPARTATE AMINOTRANSFERASE [2]: 109 u/L
BLOOD UREA NITROGEN [2]: 14.33 mg/dL
CARBON DIOXIDE [2]: 22.33 mmol/L
CHLORIDE [2]: 104 MEQ/L
CHOLESTEROL [2]: 67.67 mg/dL
CREATINE PHOSPHOKINASE [2]: 922.67 u/L
CREATININE [2]: 0.19 mg/dL
GLUCOSE [2]: 204 mg/dL
LACTATE DEHYDROGENASE [2]: 452.67 u/L
LIPASE [2]: 10 u/L
PHOSPHORUS [2]: 13.37 mg/dL
POTASSIUM [2]: 5.82 MEQ/L
SODIUM [2]: 147.33 MEQ/L
TOTAL BILIRUBIN [2]: 0.17 mg/dL
TOTAL PROTEIN [2]: 5.87 G/DL
URIC ACID [2]: 1.9 mg/dL
ABSOLUTE BASOPHIL [3]: 0 CELLS/uL
ABSOLUTE EOSINOPHIL [3]: 0 CELLS/uL
ABSOLUTE LYMPHOCYTE [3]: 15088.33 CELLS/uL
ABSOLUTE MONOCYTE [3]: 152.33 CELLS/uL
ABSOLUTE SEGMENTED NEUTROPHIL [3]: 1792.67 CELLS/uL
BASOPHIL [3]: 0%
EOSINOPHIL [3]: 0%
ERYTHROCYTE COUNT [3]: 5.64 x10E6/uL
HEMATOCRIT [3]: 34.3%
HEMOGLOBIN [3]: 13.5 G/DL
LEUKOCYTE COUNT [3]: 17.03 x10E3/uL
LYMPHOCYTE [3]: 88.33%
MEAN CORPUSCULAR HEMOGLOBIN [3]: 23.93 pg
MEAN CORPUSCULAR HEMOGLOBIN CONCENTRATION [3]: 39.37 G/DL
MEAN CORPUSCULAR VOLUME [3]: 60.83 fL
MONOCYTE [3]: 1%
NEUTROPHIL [3]: 10.67%
NUCLEATED RED BLOOD CELLS [3]: 0 /100WBC
PLATELET COUNT [3]: 1189 x10E3/uL
ALANINE AMINOTRANSFERASE [3]: 58.33 u/L
ALKALINE PHOSPHATASE [3]: 429.33 u/L
ASPARTATE AMINOTRANSFERASE [3]: 79.33 u/L
BLOOD UREA NITROGEN [3]: 16.67 mg/dL
CARBON DIOXIDE [3]: 25 mmol/L
CHLORIDE [3]: 106 MEQ/L
CHOLESTEROL [3]: 72.33 mg/dL
CREATINE PHOSPHOKINASE [3]: 133.33 u/L
CREATININE [3]: 0.2 mg/dL
GLUCOSE [3]: 162.33 mg/dL
LACTATE DEHYDROGENASE [3]: 100 u/L
LIPASE [3]: 10 u/L
PHOSPHORUS [3]: 13.67 mg/dL
POTASSIUM [3]: 6.24 MEQ/L
SODIUM [3]: 150.03 MEQ/L
TOTAL BILIRUBIN [3]: 0.13 mg/dL
TOTAL PROTEIN [3]: 5.73 G/DL
URIC ACID [3]: 1.4 mg/dL

Source: ChEMBL document CHEMBL3885881, “DrugMatrix”
